Assay [1] has as its system HS-PSS. Nature of the assay: drug sensitivity score (DSS, CellTiter-Glo viability, 72 h) (DSS (dimensionless)); higher = more sensitive; extreme values may be limits of the assay. The method in brief: (§1)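 Viability of MPNST cell lines and primary human Schwann cells was read as CellTiter-Glo ATP luminescence after 72 h at 37 °C, 5% CO2, in 384-well plates seeded with 750–1000 cells per well. Each compound had been preprinted at five concentrations in 10-fold steps. Signals were scaled between vehicle and positive-control wells, duplicates averaged where present, and fitted with four-parameter logistic curves. Drug sensitivity score and relative IC50 (censored at the top concentration) come from those fits, and percent inhibition is taken at the top concentration.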

In assay [2] the test system is HS-Sch-2. The assay is described as above. The method in brief: as §1
Assay [3] deals with HSC1 (primary human Schwann cells). The description is as above. The method in brief:
as §1

In assay [4] the test system is HSC2 (primary human Schwann cells). Described as above. In short, it runs like this:
as §1

Assay [5] deals with S1507-2. The description is as above. The method in brief:
as §1

Assay [6] relates to S462. The description is as above. In short, it runs like this: as §1
Assay [7] relates to ST8814. The description is as above. In short, it runs like this: as §1
Assay [8] has as its system STS26T. The description is as above. The method in brief: as §1
The test system of assay [9] is YST-1. Described as above. In short, it runs like this: as §1
The test system of assay [10] is HS-PSS. Nature of the assay: drug sensitivity score (DSS, CellTox-Green cytotoxicity, 72 h) (DSS (dimensionless)); higher = more cytotoxic; extreme values may be limits of the assay. The method in brief: (§2)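 MPNST cell lines and primary human Schwann cells were grown for 72 h at 37 °C in 384-well plates containing five 10-fold compound dilutions. CellTox-Green, added before seeding at a final 1:1000 dilution, gave fluorescence from DNA released by disrupted cells, and signals were scaled to vehicle and positive-control wells. Curves were fitted with a four-parameter logistic model. Drug sensitivity score and relative IC50 come from these fits, with IC50 censored at the top concentration.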

Assay [11] has as its system HSC1 (primary human Schwann cells). The description is as above. The method in brief:
as §2

The test system of assay [12] is HSC2 (primary human Schwann cells). The assay is described as above. In short, it runs like this: as §2
Assay [13] deals with S1507-2. The assay is described as above. The method in brief:
as §2

Assay [14] concerns ST8814. The description is as above. In short, it runs like this: as §2
The subject of assay [15] is STS26T. The description is as above. The method in brief:
as §2

The subject of assay [16] is HS-PSS. Nature of the assay: % inhibition of CellTiter-Glo viability at highest tested concentration (72 h), relative to DMSO and benzethonium chloride controls; higher = more inhibition. In short, it runs like this:
as §1

Assay [17] deals with HS-Sch-2. The assay is described as above. The method in brief: as §1
Assay [18] relates to HSC1 (primary human Schwann cells). The assay is described as above. The method in brief:
as §1

Assay [19] deals with HSC2 (primary human Schwann cells). The description is as above. The method in brief:
as §1

In assay [20] the test system is S1507-2. The description is as above. In short, it runs like this: as §1
Assay [21] has as its system S462. The description is as above. In short, it runs like this: as §1
For assay [22], the system named is ST8814. The description is as above. In short, it runs like this:
as §1

In assay [23] the test system is STS26T. The assay is described as above. The method in brief: as §1
Assay [24] relates to YST-1. The assay is described as above. The method in brief: as §1

SMILES strings stand for the structures. ± gives the standard deviation of the averaged measurements.

Regarding `NC(=O)c1ccc(I)c([N+](=O)[O-])c1` [Iniparib] (max concentration tested 10000 nM), the drug sensitivity score (with HS-PSS [1]; with HS-Sch-2 [2]; in [3]; in [4]; with S1507-2 [5]; with S462 [6]) was 0 throughout. Also, the drug sensitivity score (in the assay on ST8814 [7]; with STS26T [8]; with YST-1 [9]; with HS-PSS [10]; in [11]; in assay [12]) was 0 throughout. The figures for the drug sensitivity score in the assay on S1507-2 [13], in the assay on ST8814 [14] and with STS26T [15] were 6.29 ± 8.9, 0 and 0.221, respectively. Also, the “% inhibition” value was -1.31% with HS-PSS [16]; 1.26% in the assay with HS-Sch-2 [17]; -4.93% in assay [18]; 1.97% in [19]; 9.46 ± 1.8% with S1507-2 [20]; 13.9 ± 7.7% in the assay on S462 [21]. Moreover, the “% inhibition” value with ST8814 [22] is -1.13%; in the assay with STS26T [23] it was 7.72%; in the assay on YST-1 [24], -4.35%.
As for `COc1cc([C@@H]2c3cc4c(cc3[C@@H](O[C@@H]3O[C@@H]5CO[C@@H](c6cccs6)O[C@H]5[C@H](O)[C@H]3O)[C@H]3COC(=O)[C@H]23)OCO4)cc(OC)c1O` [Teniposide] (max concentration tested 10000 nM), the drug sensitivity score with HS-PSS [1] is 6.82; in the assay with HS-Sch-2 [2], 14; in [3], 22.2; in assay [4], 22.8; with S1507-2 [5], 15.6 ± 3.6; in the assay on S462 [6], 23.7 ± 0.38. Further, the drug sensitivity score was determined as 17.7 in the assay with ST8814 [7]; 17.5 in the assay with STS26T [8]; 22.9 in the assay with YST-1 [9]; 1.46 with HS-PSS [10]; 11 in assay [11]; 9.8 in [12]. The drug sensitivity score came out at 8.49 ± 4.7 in the assay on S1507-2 [13], 14.7 in the assay with ST8814 [14] and 11 in the assay on STS26T [15]. Besides, the “% inhibition” value in the assay with HS-PSS [16] came out at 68.2%; with HS-Sch-2 [17] it was 94.8%; in assay [18], 92.8%; in assay [19], 100%; with S1507-2 [20], 92.44 ± 0.6%; in the assay with S462 [21], 107.1 ± 0.24%. In addition, the “% inhibition” value was determined as 87.2% with ST8814 [22], 93.7% in the assay on STS26T [23] and 88.2% in the assay on YST-1 [24].
Turning to `Clc1ccc(C(c2ccccc2Cl)C(Cl)Cl)cc1` (centres undefined) [Mitotane] (max concentration tested 10000 nM), the drug sensitivity score (with HS-PSS [1]; in the assay on HS-Sch-2 [2]; in assay [3]; in [4]; in the assay with S1507-2 [5]; with S462 [6]) was 0 each time. The drug sensitivity score (in the assay on ST8814 [7]; in the assay with STS26T [8]; in the assay on YST-1 [9]; with HS-PSS [10]; in [11]; in assay [12]) was 0 each time. The drug sensitivity score in the assay with S1507-2 [13] came out at 3.77 ± 5.3; with ST8814 [14] it was 0; with STS26T [15], 0. The “% inhibition” value is -3.05% with HS-PSS [16]; 1.46% in the assay with HS-Sch-2 [17]; 4.91% in [18]; 1.58% in [19]; 2.14 ± 4.9% in the assay with S1507-2 [20]; 2.7 ± 7.9% in the assay on S462 [21]. Further, the “% inhibition” value in the assay on ST8814 [22] came to 6.22%; in the assay with STS26T [23], 4.66%; with YST-1 [24] it was 0.23%.
Regarding `Cc1ccc(F)c(NC(=O)Nc2ccc(-c3cccc4[nH]nc(N)c34)cc2)c1` [Linifanib] (max concentration tested 1000 nM), the drug sensitivity score in the assay on HS-PSS [1] came to 0; in the assay on HS-Sch-2 [2], 0; in assay [3] it was 0; in [4], 0.0016; with S1507-2 [5], 0.308 ± 0.44; in the assay with S462 [6], 0.159 ± 0.18. For the same molecule, the drug sensitivity score (in the assay on ST8814 [7]; in the assay with STS26T [8]; in the assay on YST-1 [9]; with HS-PSS [10]; in assay [11]; in assay [12]) was 0 each time. Also, the drug sensitivity score in the assay with S1507-2 [13], with ST8814 [14] and in the assay on STS26T [15] was 0 each time. In addition, the “% inhibition” value in the assay with HS-PSS [16] is 9.61%; in the assay with HS-Sch-2 [17] it was 1.61%; in [18] it was -2.2%; in assay [19], 11.5%; in the assay with S1507-2 [20], 10 ± 8.1%; with S462 [21], 14.7 ± 3.3%. For the same molecule, the “% inhibition” value was 10.9% in the assay with ST8814 [22], 5.78% in the assay on STS26T [23] and 6.46% in the assay with YST-1 [24].
Regarding `CC1(C)NC(=O)N(c2ccc([N+](=O)[O-])c(C(F)(F)F)c2)C1=O` [Nilutamide] (max concentration tested 10000 nM), the drug sensitivity score was determined as 0 in the assay with HS-PSS [1]; 0.51 with HS-Sch-2 [2]; 0.162 in [3]; 0 in assay [4]; 0 in the assay with S1507-2 [5]; 0 in the assay on S462 [6]. For the same molecule, the drug sensitivity score (in the assay with ST8814 [7]; in the assay with STS26T [8]; in the assay on YST-1 [9]; in the assay on HS-PSS [10]; in assay [11]; in assay [12]) was 0 in each case. Further, the drug sensitivity score in the assay on S1507-2 [13], in the assay on ST8814 [14] and in the assay with STS26T [15] was 0 throughout. In addition, the “% inhibition” value in the assay with HS-PSS [16] worked out at 8.31%; in the assay with HS-Sch-2 [17], 18.2%; in [18], 9.41%; in assay [19], 9.17%; with S1507-2 [20], 7.48 ± 3.5%; with S462 [21], 6.29 ± 2.4%. Besides, the “% inhibition” value in the assay on ST8814 [22] is -1.67%; in the assay on STS26T [23], 7.4%; in the assay with YST-1 [24] it was -2.31%.
Regarding `C/C(=C\c1csc(C)n1)[C@@H]1C[C@@H]2O[C@]2(C)CCC[C@H](C)[C@H](O)[C@@H](C)C(=O)C(C)(C)[C@@H](O)CC(=O)N1` [Ixabepilone] (max concentration tested 1000 nM), the drug sensitivity score came out at 1.51 with HS-PSS [1]; 5.18 in the assay with HS-Sch-2 [2]; 7.72 in [3]; 4.2 in [4]; 3.26 ± 0.04 with S1507-2 [5]; 4.444 ± 0.0091 in the assay on S462 [6]. Moreover, the drug sensitivity score in the assay on ST8814 [7] came out at 3.83; with STS26T [8] it was 4.72; with YST-1 [9] it was 3.86; in the assay with HS-PSS [10], 0; in assay [11], 4.19; in assay [12], 3.03. The drug sensitivity score in the assay on S1507-2 [13] was found to be 3.15 ± 0.92; in the assay on ST8814 [14] it was 4.33; with STS26T [15], 5.61. For the same molecule, the “% inhibition” value worked out at 39.3% with HS-PSS [16]; 91.8% in the assay on HS-Sch-2 [17]; 69.7% in [18]; 62.1% in assay [19]; 62.7 ± 3.3% with S1507-2 [20]; 84.3 ± 4% with S462 [21]. In addition, the “% inhibition” value was 79.1% in the assay with ST8814 [22], 92.9% in the assay with STS26T [23] and 79% in the assay on YST-1 [24].

Values taken from the supplement of paper PMC5579334.
